Assays:
[1] = test system: Plasmodium falciparum; assay: Antimalarial activity: Asexual Blood Stage Plasmodium falciparum 3D7 IC50 (uM); format: functional, organism-based
[2] = test system: Plasmodium falciparum; assay: Antimalarial activity: Asexual Blood Stage Plasmodium falciparum Dd2 IC50 (uM); format: functional, organism-based
[3] = test system: Plasmodium falciparum; assay: Antimalarial activity: Asexual Blood Stage Plasmodium falciparum W2 IC50 (uM); format: functional, organism-based
[4] = test system: Plasmodium berghei; assay: Antimalarial activity: Liver Stage Plasmodium berghei sporozoite Luciferase assay: inhibition at 10 uM (%); format: functional
[5] = test system: Plasmodium berghei; assay: Antimalarial activity: Liver Stage Plasmodium berghei sporozoite Luciferase assay IC50 (uM); format: functional, organism-based
[6] = test system: Plasmodium falciparum; assay: Antimalarial activity: Gametocytes Plasmodium falciparum NF54 Gametocytes Stage V: inhibition at 10 uM (%); format: functional
[7] = test system: HepG2; assay: Cytotoxicity data HepG2 CC20 (uM); format: functional
[8] = test system: HepG2; assay: HepG2 CC50 (uM) Cytotoxicity; format: functional; conditions: Homo sapiens
[9] = test system: Trypanosoma cruzi; assay: AntiTrypanosoma cruzi activity IC50 (uM); format: functional, organism-based
[10] = test system: Trypanosoma brucei; assay: AntiTrypanosoma brucei activity T. b. brucei IC50 (uM); format: functional, organism-based
[11] = test system: Trypanosoma brucei; assay: AntiTrypanosoma brucei activity T. b. rhodesiense IC50 (uM); format: functional, organism-based
[12] = test system: Leishmania infantum; assay: AntiLeishmania activity L. infantum (macrophages) IC50 (uM); format: functional, organism-based
[13] = test system: MRC5; assay: MRC5 CC50 (uM) Cytotoxicity; format: functional; conditions: Homo sapiens
[14] = PMM CC50 (uM) Cytotoxicity; format: functional; conditions: Macrophage

Structure (SMILES) | IC50 [1] | IC50 [2] | IC50 [3] | Inhibition [4] | IC50 [5] | Inhibition [6] | CC20 [7] | CC50 [8] | IC50 [9] | IC50 [10] | IC50 [11] | IC50 [12] | CC50 [13] | CC50 [14]
O=C1N(Cc2cc3ccccc3s2)CC2CN(Cc3ccccc3)CCN12 (configuration not stated) | 1160 nM | 1260 nM | 1330 nM | 100% | 200 nM | 53% | 26400 nM | > 10000 nM | – | – | – | – | – | –
O=C(NC1CC1)c1ccc(N2CCOc3ccc(Cl)cc32)s1 | 1030 nM | – | – | 98% | 3480 nM | 18% | – | > 10000 nM | – | – | – | – | – | –
COc1cncc(-c2cncc(N3CCN(c4ccncc4)CC3)n2)c1 | 100 nM | 150 nM | 180 nM | 64% | > 7500 nM | 12% | 4650 nM | > 10000 nM | – | – | – | – | – | –
OCCc1ccc(Nc2nccc(-c3nnc4ccccn34)n2)cc1 | 1080 nM | 1630 nM | 690 nM | 99% | 1470 nM | 11% | 1670 nM | 8100 nM | – | – | – | – | – | –
CO[C@@H](C(=O)N1Cc2[nH]nc(NC(=O)c3ccc(N4CCN(C)CC4)cc3)c2C1)c1ccccc1 [DANUSERTIB] | – | – | – | – | – | – | 4830 nM | – | 6480 nM | 1020 nM | 370 nM | 4060 nM | 2700 nM | 4000 nM
CNC(=O)c1nn(C)c2c1C(C)(C)Cc1cnc(Nc3ccc(N4CCN(C)CC4)cc3)nc1-2 [MILCICLIB] | – | – | – | – | – | – | <260 nM | – | 1050 nM | < 130 nM | < 130 nM | 850 nM | 1100 nM | 1000 nM
CCc1nn(C)c(C(=O)NCc2ccc(Oc3ccc(C)cc3)cc2)c1Cl [TOLFENPYRAD] | – | – | – | 94% | – | – | – | – | 5350 nM | 33000 nM | 20400 nM | 45600 nM | 56000 nM | 48000 nM
Cc1nn(C)c(C)c1NS(=O)(=O)c1c(Cl)cc(-c2ccnc(N3CCNCC3)c2)cc1Cl | – | – | – | – | – | – | 50 nM | – | 850 nM | < 130 nM | < 130 nM | 1010 nM | 2000 nM | 1000 nM
Cc1cc(C(=O)Nc2cnn(Cc3ccc(Cl)cc3Cl)c2)no1 | 1880 nM | > 2000 nM | – | 98% | 1390 nM | 11% | 30600 nM | > 10000 nM | – | – | – | – | – | –
CC1=Nc2ccc(Cl)cc2C(O)(c2ccc(C)cc2)N1CCN1CCCCC1 (configuration not stated) | – | – | – | – | – | – | 10000 nM | – | 4040 nM | 980 nM | 430 nM | 4060 nM | 16000 nM | 4000 nM
C[C@]1(O)C[C@@H](c2nc(-c3ccc4ccc(-c5ccccc5)nc4c3)c3c(N)nccn32)C1 [LINSITINIB] | > 2000 nM | > 2000 nM | – | 98% | 360 nM | 16% | 4670 nM | > 10000 nM | – | – | – | – | – | –
Nc1ccc(C(=O)Nc2ccc(-c3nc4ccccc4o3)cc2)cc1 | 1550 nM | > 2000 nM | – | 89% | > 10000 nM | 0% | 18200 nM | > 10000 nM | – | – | – | – | – | –
N=C(N)Nc1ccc(-c2ccc(-c3ccc(N=C(N)N)c(Cl)c3)o2)cc1Cl | – | – | – | – | – | – | 13500 nM | – | 660 nM | 600 nM | 200 nM | 10200 nM | 15400 nM | 16000 nM
COc1cc(C2=NCCN2)cc2cc(-c3ccc(C4=NCCN4)cc3)oc12 | – | – | – | – | – | – | 14300 nM | – | 13300 nM | 14500 nM | 780 nM | > 32000 nM | > 32000 nM | > 32000 nM
CC1=Nc2ccc(Cl)cc2C(c2ccccc2)N1CCNC(=O)CN(C)C (configuration not stated) | – | – | – | – | – | – | 16400 nM | – | 17100 nM | 3780 nM | 3110 nM | 10100 nM | 16000 nM | > 32000 nM
COc1ccc(C2=NCCN2)cc1-c1cn(-c2cccc(C3=NCCN3)c2)nn1 | – | – | – | – | – | – | >80000 nM | – | > 32000 nM | > 32000 nM | 1630 nM | > 32000 nM | > 32000 nM | > 32000 nM
COc1ccc(CN2CCOc3ccc(C(C)(O)CN(C)C)cc3C2)cc1C (configuration not stated) | > 2000 nM | 1470 nM | – | 64% | 930 nM | 7% | 17400 nM | > 10000 nM | – | – | – | – | – | –
CCCCN(CCCC)c1c(C#N)cc(S(=O)(=O)Nc2ccccc2)cc1C#N | – | – | – | – | – | – | 11900 nM | – | 820 nM | 260 nM | 240 nM | 13600 nM | 3900 nM | 16000 nM

— ChEMBL document CHEMBL3832761, “MMV Pathogen Box Bioactivity Data” (2017)
